In PubChem BioAssay (NCI):
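In this assay, cells in 96-well plates receive the compound at five concentrations for 48 hours. Endpoints are linearly interpolated between the surrounding concentrations. At the GI50, growth is halved. At the TGI there is no net growth.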

Assays:
Assay in all cases: inhibition of tumour cell growth, NCI panel, 48 h
MCF7 breast = system: MCF7 breast
MALME-3M melanoma = system: MALME-3M melanoma
HCT-116 colon = system: HCT-116 colon
COLO 205 colon = system: COLO 205 colon
SNB-75 CNS = system: SNB-75 CNS
SK-OV-3 ovarian = system: SK-OV-3 ovarian
HCC-2998 colon = system: HCC-2998 colon
786-0 renal = system: 786-0 renal
SK-MEL-2 melanoma = system: SK-MEL-2 melanoma
OVCAR-3 ovarian = system: OVCAR-3 ovarian
SW-620 colon = system: SW-620 colon
MDA-MB-435 = system: MDA-MB-435
OVCAR-5 ovarian = system: OVCAR-5 ovarian
MDA-MB-231 breast = system: MDA-MB-231 breast
DU-145 prostate = system: DU-145 prostate
TK-10 renal = system: TK-10 renal
HOP-62 NSCLC = system: HOP-62 NSCLC
SK-MEL-28 melanoma = system: SK-MEL-28 melanoma
SF-268 CNS = system: SF-268 CNS
KM12 colon = system: KM12 colon
UACC-62 melanoma = system: UACC-62 melanoma
NCI-H522 lung = system: NCI-H522 lung
SR leukemia = system: SR leukemia
HT29 colon = system: HT29 colon
K-562 leukemia = system: K-562 leukemia
RPMI-8226 leukemia = system: RPMI-8226 leukemia
ACHN renal = system: ACHN renal
IGROV1 ovarian = system: IGROV1 ovarian
SK-MEL-5 melanoma = system: SK-MEL-5 melanoma

C=C(C)[C@@H]1CC[C@]2(C)[C@H](CC[C@@H]3[C@@H]([C@@](C)(O)CCC=C(C)C)CC[C@]32C)[C@@]1(C)CCC(=O)N1CCN(C)CC1
GI50 (MCF7 breast): 7 µM | TGI (MCF7 breast): 21.1 µM | GI50 (MALME-3M melanoma): 10.7 µM | TGI (MALME-3M melanoma): 23.6 µM | GI50 (HCT-116 colon): 4.43 µM | TGI (HCT-116 colon): 16.9 µM | GI50 (COLO 205 colon): 12.3 µM | TGI (COLO 205 colon): 26.8 µM | GI50 (SNB-75 CNS): 11.3 µM | TGI (SNB-75 CNS): 25 µM | GI50 (SK-OV-3 ovarian): 12.9 µM | TGI (SK-OV-3 ovarian): 26.4 µM | GI50 (HCC-2998 colon): 13.5 µM | TGI (HCC-2998 colon): 26.3 µM | GI50 (786-0 renal): 10.3 µM | TGI (786-0 renal): 23.8 µM | GI50 (SK-MEL-2 melanoma): 14.8 µM | TGI (SK-MEL-2 melanoma): 29.8 µM | GI50 (OVCAR-3 ovarian): 10.4 µM | TGI (OVCAR-3 ovarian): 22.5 µM | GI50 (SW-620 colon): 13 µM | TGI (SW-620 colon): 28.5 µM | GI50 (MDA-MB-435): 12.2 µM | TGI (MDA-MB-435): 26.5 µM | GI50 (OVCAR-5 ovarian): 14 µM | TGI (OVCAR-5 ovarian): 27.4 µM | GI50 (MDA-MB-231 breast): 13.4 µM | TGI (MDA-MB-231 breast): 26.7 µM | GI50 (DU-145 prostate): 11.9 µM | TGI (DU-145 prostate): 24.6 µM | GI50 (TK-10 renal): 17.7 µM | TGI (TK-10 renal): 32.2 µM | GI50 (HOP-62 NSCLC): 12.8 µM | TGI (HOP-62 NSCLC): 26.1 µM | GI50 (SK-MEL-28 melanoma): 12.9 µM | TGI (SK-MEL-28 melanoma): 25.8 µM | GI50 (SF-268 CNS): 13.1 µM | TGI (SF-268 CNS): 30.1 µM | GI50 (KM12 colon): 10.5 µM | TGI (KM12 colon): 23.6 µM | GI50 (UACC-62 melanoma): 11.2 µM | TGI (UACC-62 melanoma): 24.1 µM | GI50 (NCI-H522 lung): 13.4 µM | TGI (NCI-H522 lung): 28.2 µM | GI50 (SR leukemia): 3.39 µM | TGI (SR leukemia): 21.6 µM | GI50 (HT29 colon): 4.14 µM | TGI (HT29 colon): 16.2 µM | GI50 (K-562 leukemia): 4.26 µM | TGI (K-562 leukemia): 24.1 µM | GI50 (RPMI-8226 leukemia): 5.99 µM | TGI (RPMI-8226 leukemia): 28.6 µM | GI50 (ACHN renal): 13.6 µM | TGI (ACHN renal): 26.5 µM | GI50 (IGROV1 ovarian): 12.7 µM | TGI (IGROV1 ovarian): 27.4 µM | GI50 (SK-MEL-5 melanoma): 6.97 µM | TGI (SK-MEL-5 melanoma): 19.6 µM
